Data taken from patent US11337949B2, “Thermostable formulation of biologically active substances” (CAPRETTO EHF., priority 2016, dated 2022).

How the values were obtained:
[1] = Thermostability of aqueous lipid solutions; type: physicochemical; conditions: exposed to temperature below 10° C. or above 25° C.
Excerpt: EP-0351651 describes the use of PEG-C8/C10-glycerides as an absorption promoter for insulin. Especially for orally and buccally administered insulin. From the disclosure it appears that an increase in concentration of PEG-C8/C10-glycerides results in an increase in absorption. With respect to a nasal composition the composition described has a relatively high concentration of absorption enhancer, namely about 50% w/w. WO2003070280 (Absorption enhancing agent) describes the use of PEG-C8/C10-glycerides as absorption promoter for e.g. sumatriptan, in most preferred concentrations of 0.1-10%. Here, the function of PEG-C8/C10-glycerides should not promote absorption, since that will remove the active ingredient from the surface such as the mucosal surface, and into the systemic circulation. However, PEG-C8/C10 is able to act as a thermostabilizer for formulations containing lipids that are insoluble in water.

Staphylococcus aureus = conditions: cited from earlier work
Staphylococcus epidermis = conditions: cited from earlier work
Streptococci A = conditions: cited from earlier work
Streptococci pyogenes = conditions: cited from earlier work
Haemophilus influenzae = conditions: cited from earlier work
Streptococcus D = conditions: cited from earlier work
Streptococcus mutans = conditions: cited from earlier work
Streptococcus pneumoniae = conditions: cited from earlier work
Corynebacteria sp. = conditions: cited from earlier work
Nococardia asteroides = conditions: cited from earlier work
Micrococcus sp. = conditions: cited from earlier work
Pseudomonas aeruginosa = conditions: cited from earlier work
Listeria monocytogenes = conditions: cited from earlier work
Lactobacillus jensenii = conditions: cited from earlier work
Chlamydia trachomatis = conditions: cited from earlier work
Neisseria gonorrhoeae = conditions: cited from earlier work
Helicobacter pylori = conditions: cited from earlier work
Campylobacter jejuni = conditions: cited from earlier work
Candida albicans (yeast) = conditions: cited from earlier work
[2] = system: Herpes virus type 1 (HSV-1); conditions: cited from earlier work
[3] = system: Herpes virus type 2 (HSV-2); conditions: cited from earlier work
[4] = system: Respiratory syncytial virus (RSV); conditions: cited from earlier work
Influenza A virus = conditions: cited from earlier work
[5] = system: Parainfluenza virus type 2; conditions: cited from earlier work

CCCCCCCCCC(=O)OCC(O)CO (stereo not shown) [monocaprin]
precipitation in aqueous formulations [1]: will easily precipitate | bactericidal effect (Staphylococcus aureus): bacteriocid | bactericidal effect (Staphylococcus epidermis): bacteriocid | bactericidal effect (Streptococci A): bacteriocid | bactericidal effect (Streptococci pyogenes): bacteriocid | bactericidal effect (Haemophilus influenzae): bacteriocid | effectiveness against microbe (Streptococcus D): effective | effectiveness against microbe (Streptococcus mutans): effective | effectiveness against microbe (Streptococcus pneumoniae): effective | effectiveness against microbe (Corynebacteria sp.): effective | effectiveness against microbe (Nococardia asteroides): effective | effectiveness against microbe (Micrococcus sp.): effective | effectiveness against microbe (Pseudomonas aeruginosa): effective | effectiveness against microbe (Listeria monocytogenes): effective | effectiveness against microbe (Lactobacillus jensenii): effective | effectiveness against microbe (Chlamydia trachomatis): effective | effectiveness against microbe (Neisseria gonorrhoeae): effective | effectiveness against microbe (Helicobacter pylori): effective | effectiveness against microbe (Campylobacter jejuni): effective | effectiveness against microbe (Candida albicans (yeast)): effective | effectiveness against virus [2]: effective | effectiveness against virus [3]: effective | effectiveness against virus [4]: effective | effectiveness against virus (Influenza A virus): effective | effectiveness against virus [5]: effective
